Legend:
[1] = target: FGFR4 (GST-FGFR4(388-802)) (Homo sapiens (Human), UniProt P22455); experiment: In-vitro biochemical kinase assay for FGFR4 (Caliper microfluidic mobility shift); conditions: read-out: Biochemical FGFR4 IC50
Tel-FGFR4 = Tel-FGFR4 (Homo sapiens (Human), UniProt P22455); experiment: In vitro cellular kinase assay for FGFR4 (BaF3-Tel-FGFR4 cells, MSD capture ELISA of tyrosine phosphorylation); assay type: cell-based; conditions: BaF3-Tel-FGFR4 cells, 1 hour incubation; read-out: Cellular BaF3 FGFR4 IC50
Sequence of Tel-FGFR4 (P22455 other isoform, or with tags, fused parts or gaps): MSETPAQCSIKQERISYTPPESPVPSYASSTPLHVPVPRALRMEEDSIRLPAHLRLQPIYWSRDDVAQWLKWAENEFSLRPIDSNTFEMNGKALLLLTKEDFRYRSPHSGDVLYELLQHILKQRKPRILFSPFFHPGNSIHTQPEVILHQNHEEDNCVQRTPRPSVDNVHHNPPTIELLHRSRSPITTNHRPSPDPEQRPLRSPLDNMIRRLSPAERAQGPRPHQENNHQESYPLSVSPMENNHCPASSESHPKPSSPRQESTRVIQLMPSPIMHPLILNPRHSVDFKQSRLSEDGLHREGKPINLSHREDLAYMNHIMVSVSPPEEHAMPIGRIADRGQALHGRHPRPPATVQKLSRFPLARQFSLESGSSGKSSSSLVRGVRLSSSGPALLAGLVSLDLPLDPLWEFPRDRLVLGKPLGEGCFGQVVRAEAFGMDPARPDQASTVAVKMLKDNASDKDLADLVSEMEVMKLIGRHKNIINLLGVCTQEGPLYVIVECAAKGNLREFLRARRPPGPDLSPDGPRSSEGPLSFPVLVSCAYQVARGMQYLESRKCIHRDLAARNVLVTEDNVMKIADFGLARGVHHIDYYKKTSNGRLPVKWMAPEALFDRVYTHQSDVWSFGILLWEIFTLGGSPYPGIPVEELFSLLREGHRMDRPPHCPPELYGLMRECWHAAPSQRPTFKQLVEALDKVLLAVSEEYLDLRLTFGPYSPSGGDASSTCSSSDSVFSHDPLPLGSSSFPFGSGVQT

FGFR1 (407-822) = FGFR1 (407-822) (Homo sapiens (Human), UniProt P11362); experiment: In vitro biochemical assay for FGFR1
Sequence of FGFR1 (407-822) (P11362 407-822): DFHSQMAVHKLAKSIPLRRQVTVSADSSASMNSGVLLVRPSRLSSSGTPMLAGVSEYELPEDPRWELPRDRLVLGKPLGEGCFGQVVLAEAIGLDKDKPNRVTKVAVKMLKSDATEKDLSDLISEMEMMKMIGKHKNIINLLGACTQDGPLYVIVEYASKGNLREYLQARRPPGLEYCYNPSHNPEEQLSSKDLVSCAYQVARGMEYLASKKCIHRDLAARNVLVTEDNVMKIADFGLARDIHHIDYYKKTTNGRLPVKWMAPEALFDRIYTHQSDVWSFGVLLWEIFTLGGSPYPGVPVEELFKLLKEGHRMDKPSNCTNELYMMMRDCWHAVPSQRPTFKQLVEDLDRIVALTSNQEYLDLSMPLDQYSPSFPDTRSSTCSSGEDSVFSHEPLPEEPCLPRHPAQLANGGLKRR

FGFR2 (406-821) = FGFR2 (406-821) (Homo sapiens (Human), UniProt P21802); experiment: In vitro biochemical assay for FGFR2
Sequence of FGFR2 (406-821) (P21802 406-821): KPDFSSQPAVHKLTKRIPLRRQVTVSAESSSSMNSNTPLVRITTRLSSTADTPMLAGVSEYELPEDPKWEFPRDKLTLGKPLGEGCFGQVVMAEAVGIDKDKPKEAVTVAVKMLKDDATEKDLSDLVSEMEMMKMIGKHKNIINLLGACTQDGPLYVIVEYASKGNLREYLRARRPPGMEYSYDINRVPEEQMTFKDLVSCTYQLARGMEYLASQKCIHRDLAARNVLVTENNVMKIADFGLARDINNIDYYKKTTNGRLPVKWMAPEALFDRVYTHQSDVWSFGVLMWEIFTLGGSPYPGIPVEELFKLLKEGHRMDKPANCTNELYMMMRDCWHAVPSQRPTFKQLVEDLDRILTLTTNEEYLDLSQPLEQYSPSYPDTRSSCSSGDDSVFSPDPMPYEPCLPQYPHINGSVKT

FGFR3 (411-806) = FGFR3 (411-806) (Homo sapiens (Human), UniProt P22607); experiment: In vitro biochemical assay for FGFR3
Sequence of FGFR3 (411-806) (P22607 411-806): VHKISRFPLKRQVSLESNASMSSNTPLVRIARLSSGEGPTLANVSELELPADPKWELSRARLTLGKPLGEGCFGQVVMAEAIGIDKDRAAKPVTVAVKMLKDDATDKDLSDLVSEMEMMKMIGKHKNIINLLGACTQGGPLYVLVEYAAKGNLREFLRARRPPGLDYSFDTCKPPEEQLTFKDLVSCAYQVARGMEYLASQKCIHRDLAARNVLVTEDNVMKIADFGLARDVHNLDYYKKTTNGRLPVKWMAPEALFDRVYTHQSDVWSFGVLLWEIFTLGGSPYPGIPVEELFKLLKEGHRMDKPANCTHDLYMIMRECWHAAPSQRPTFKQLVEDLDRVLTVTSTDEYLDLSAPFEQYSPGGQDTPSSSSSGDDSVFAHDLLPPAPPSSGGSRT

[2] = tested on: HuH-7 hepatocellular carcinoma cells; experiment: CellTiter Glo (CTG) Assay; conditions: Homo sapiens, Huh-7, 72 h, read-out: HUH7 proliferation (nM) CTG

Sequence of FGFR4 (GST-FGFR4(388-802)) (P22455 388-802): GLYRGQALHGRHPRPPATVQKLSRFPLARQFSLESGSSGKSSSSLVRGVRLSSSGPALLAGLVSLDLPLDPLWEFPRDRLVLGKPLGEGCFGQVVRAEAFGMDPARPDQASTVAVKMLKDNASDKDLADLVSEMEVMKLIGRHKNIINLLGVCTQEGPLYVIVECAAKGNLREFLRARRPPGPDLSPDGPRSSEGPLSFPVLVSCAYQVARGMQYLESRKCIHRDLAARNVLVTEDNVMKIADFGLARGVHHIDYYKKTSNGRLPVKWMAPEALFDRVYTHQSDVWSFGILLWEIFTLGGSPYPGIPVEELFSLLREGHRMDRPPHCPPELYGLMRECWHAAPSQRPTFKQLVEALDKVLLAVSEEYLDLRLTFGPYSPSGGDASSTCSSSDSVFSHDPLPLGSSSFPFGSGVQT

Row | Compound | IC50 [1] | IC50 (Tel-FGFR4) | IC50 (FGFR1 (407-822)) | IC50 (FGFR2 (406-821)) | IC50 (FGFR3 (411-806)) | IC50 [2]
1 | COCC(C)Oc1cc(NC(=O)N2CCCc3cc(CO)c(C=O)nc32)ncc1C#N (racemic) [Example 48, N-(5-cyano-4-((1-methoxypropan-2-yl)oxy)pyridin-2-yl)-7-formyl-6-(hydroxymethyl)-3,4-dihydro-1,8-naphthyridine-1(2H)-carboxamide] | 3.2 nM | 8.8 nM | > 10 µM | > 10 µM | > 10 µM | –
2 | N#Cc1cnc(NC(=O)N2CCCc3cc(CO)c(C=O)nc32)cc1NCC1CCCOC1 (racemic) [Example 55, N-(5-cyano-4-(((tetrahydro-2H-pyran-3-yl)methyl)amino)pyridin-2-yl)-7-formyl-6-(hydroxymethyl)-3,4-dihydro-1,8-naphthyridine-1(2H)-carboxamide] | – | – | > 10 µM | > 10 µM | > 10 µM | 202 nM
3 | N#Cc1ccc(NC(=O)N2CCC(O)c3ccc(C=O)nc32)nc1 (racemic) [Example 79, N-(5-cyanopyridin-2-yl)-7-formyl-4-hydroxy-3,4-dihydro-1,8-naphthyridine-1(2H)-carboxamide] | 32.5 nM | 194 nM | > 10 µM | > 10 µM | > 10 µM | –
4 | COCCNc1cc(NC(=O)N2CCCc3cc(N4CCC(C)C4=O)c(C=O)nc32)ncc1C#N (racemic) [Example 261, N-(5-cyano-4-((2-methoxyethyl)amino)pyridin-2-yl)-7-formyl-6-(3-methyl-2-oxopyrrolidin-1-yl)-3,4-dihydro-1,8-naphthyridine-1(2H)-carboxamide] | – | – | > 10 µM | > 10 µM | > 10 µM | 2540 nM
5 | N#Cc1ccc(NC(=O)N2CCCc3ccc(C=O)nc32)nc1 [Example 3, N-(5-cyanopyridin-2-yl)-7-formyl-3,4-dihydro-1,8-naphthyridine-1(2H)-carboxamide] | – | – | > 10 µM | > 10 µM | > 10 µM | –
6 | N#Cc1cnc(NC(=O)N2CCCc3ccc(C=O)nc32)nc1 [Example 8, N-(5-cyanopyrimidin-2-yl)-7-formyl-3,4-dihydro-1,8-naphthyridine-1(2H)-carboxamide] | – | – | > 10 µM | > 10 µM | > 10 µM | –
7 | N#Cc1cnc(NC(=O)N2CCCc3ccc(C=O)nc32)cn1 [Example 12, N-(5-cyanopyrazin-2-yl)-7-formyl-3,4-dihydro-1,8-naphthyridine-1(2H)-carboxamide] | – | – | > 10 µM | > 10 µM | > 10 µM | –
8 | COc1cc(NC(=O)N2CCCc3ccc(C=O)nc32)ncc1C#N [Example 13, N-(5-cyano-4-methoxypyridin-2-yl)-7-formyl-3,4-dihydro-1,8-naphthyridine-1(2H)-carboxamide] | – | – | > 10 µM | > 10 µM | > 10 µM | –
9 | O=Cc1ccc2c(n1)N(C(=O)Nc1ccc(C(F)(F)F)cn1)CCO2 [Example 14, 6-formyl-N-(5-(trifluoromethyl)pyridin-2-yl)-2H-pyrido[3,2-b][1,4]oxazine-4(3H)-carboxamide] | – | – | > 10 µM | > 10 µM | > 10 µM | –
10 | CCOc1cc(NC(=O)N2CCCc3ccc(C=O)nc32)ncc1C#N [Example 19, N-(5-cyano-4-ethoxypyridin-2-yl)-7-formyl-3,4-dihydro-1,8-naphthyridine-1(2H)-carboxamide] | – | – | > 10 µM | > 10 µM | > 10 µM | –
11 | COCCOc1cc(NC(=O)N2CCCc3ccc(C=O)nc32)ncc1C#N [Example 23, N-(5-cyano-4-(2-methoxyethoxyl)pyridin-2-yl)-7-formyl-3,4-dihydro-1,8-naphthyridine-1(2H)-carboxamide] | – | – | > 10 µM | > 10 µM | > 10 µM | –
12 | CN(C)CCOc1cc(NC(=O)N2CCCc3ccc(C=O)nc32)ncc1C#N [Example 38, N-(5-cyano-4-(2-(dimethylamino)ethoxy)pyridin-2-yl)-7-formyl-3,4-dihydro-1,8-naphthyridine-1(2H)-carboxamide] | – | – | > 10 µM | > 10 µM | > 10 µM | –
13 | COCCOc1cc(NC(=O)N2CCCc3cc(CO)c(C=O)nc32)ncc1C#N [Example 39, N-(5-cyano-4-(2-methoxyethoxyl)pyridin-2-yl)-7-formyl-6-(hydroxymethyl)-3,4-dihydro-1,8-naphthyridine-1(2H)-carboxamide] | – | – | > 10 µM | > 10 µM | > 10 µM | –
14 | N#Cc1cnc(NC(=O)N2CCCc3cc(CO)c(C=O)nc32)cc1O[C@@H]1CCOC1 [Example 49, (R)-N-(5-cyano-4-((tetrahydrofuran-3-yl)oxy)pyridin-2-yl)-7-formyl-6-(hydroxymethyl)-3,4-dihydro-1,8-naphthyridine-1(2H)-carboxamide] | – | – | > 10 µM | > 10 µM | > 10 µM | –
15 | N#Cc1cnc(NC(=O)N2CCCc3cc(CO)c(C=O)nc32)cc1O[C@H]1CCOC1 [Example 50, (S)-N-(5-cyano-4-((tetrahydrofuran-3-yl)oxy)pyridin-2-yl)-7-formyl-6-(hydroxymethyl)-3,4-dihydro-1,8-naphthyridine-1(2H)-carboxamide] | – | – | > 10 µM | > 10 µM | > 10 µM | –
16 | CN1CC[C@@H](Oc2cc(NC(=O)N3CCCc4cc(CO)c(C=O)nc43)ncc2C#N)C1 [Example 54, (R)-N-(5-cyano-4-((1-methylpyrrolidin-3-yl)oxy)pyridin-2-yl)-7-formyl-6-(hydroxymethyl)-3,4-dihydro-1,8-naphthyridine-1(2H)-carboxamide] | – | – | > 10 µM | > 10 µM | > 10 µM | –
17 | COCCOc1cc(NC(=O)N2CCCc3cc(C4CC4)c(C=O)nc32)ncc1C#N [Example 62, N-(5-cyano-4-(2-methoxyethoxyl)pyridin-2-yl)-6-cyclopropyl-7-formyl-3,4-dihydro-1,8-naphthyridine-1(2H)-carboxamide] | – | – | > 10 µM | > 10 µM | > 10 µM | 599 nM
18 | COCCOc1cc(NC(=O)N2CCCc3cc(C(F)F)c(C=O)nc32)ncc1C#N [Example 63, N-(5-cyano-4-(2-methoxyethoxyl)pyridin-2-yl)-6-(difluoromethyl)-7-formyl-3,4-dihydro-1,8-naphthyridine-1(2H)-carboxamide] | – | – | > 10 µM | > 10 µM | > 10 µM | –
19 | COCCOc1cc(NC(=O)N2CCCc3cc(CN(C)C)c(C=O)nc32)ncc1C#N [Example 64, N-(5-cyano-4-(2-methoxyethoxyl)pyridin-2-yl)-6-((dimethylamino)methyl)-7-formyl-3,4-dihydro-1,8-naphthyridine-1(2H)-carboxamide] | 160 nM | 713 nM | > 10 µM | > 10 µM | > 10 µM | –
20 | COCCNc1cc(NC(=O)N2CCCc3cc(CO)c(C=O)nc32)ncc1C#N [Example 80, N-(5-cyano-4-((2-methoxyethyl)amino)pyridin-2-yl)-7-formyl-6-(hydroxymethyl)-3,4-dihydro-1,8-naphthyridine-1(2H)-carboxamide] | – | – | > 10 µM | > 10 µM | > 10 µM | –
21 | CC(C)Nc1cc(NC(=O)N2CCCc3cc(CN4CCN(C)CC4=O)c(C=O)nc32)ncc1C#N [Example 95, N-(5-cyano-4-(isopropylamino)pyridin-2-yl)-7-formyl-6-((4-methyl-2-oxopiperazin-1-yl)methyl)-3,4-dihydro-1,8-naphthyridine-1(2H)-carboxamide] | – | – | > 10 µM | > 10 µM | > 10 µM | 45 nM
22 | COCCNc1cc(NC(=O)N2CCCc3cc(CN4CCOCC4=O)c(C=O)nc32)ncc1C#N [Example 98, N-(5-cyano-4-((2-methoxyethyl)amino)pyridin-2-yl)-7-formyl-6-((3-oxomorpholino)methyl)-3,4-dihydro-1,8-naphthyridine-1(2H)-carboxamide] | – | – | > 10 µM | > 10 µM | > 10 µM | –
23 | COCCNc1cc(NC(=O)N2CCCc3cc(CN(C)C(=O)COC)c(C=O)nc32)ncc1C#N [Example 148, N-(5-cyano-4-((2-methoxyethyl)amino)pyridin-2-yl)-7-formyl-6-((2-methoxy-N-methylacetamido)methyl)-3,4-dihydro-1,8-naphthyridine-1(2H)-carboxamide] | – | – | > 10 µM | > 10 µM | > 10 µM | 45.5 nM
24 | N#Cc1ccc(NC(=O)N2CCCCc3ccc(C=O)nc32)nc1 [Example 201, N-(5-cyanopyridin-2-yl)-2-formyl-7,8-dihydro-5H-pyrido[2,3-b]azepine-9(6H)-carboxamide] | – | – | > 10 µM | > 10 µM | > 10 µM | –
25 | COCCOc1cc(NC(=O)N2CCCCc3ccc(C=O)nc32)ncc1C#N [Example 202, N-(5-cyano-4-(2-methoxyethoxyl)pyridin-2-yl)-2-formyl-7,8-dihydro-5H-pyrido[2,3-b]azepine-9(6H)-carboxamide] | – | – | > 10 µM | > 10 µM | > 10 µM | > 3000 nM
26 | CC(C)Oc1cc(NC(=O)N2CCc3ccc(C=O)nc32)ncc1C#N [Example 234, N-(5-cyano-4-isopropoxypyridin-2-yl)-6-formyl-2,3-dihydro-1H-pyrrolo[2,3-b]pyridine-1-carboxamide] | – | – | > 10 µM | > 10 µM | > 10 µM | –
27 | COCCNc1cc(NC(=O)N2CCCc3cc(-c4cnc(C)s4)c(C=O)nc32)ncc1C#N [Example 252, N-(5-cyano-4-((2-methoxyethyl)amino)pyridin-2-yl)-7-formyl-6-(2-methylthiazol-5-yl)-3,4-dihydro-1,8-naphthyridine-1(2H)-carboxamide] | – | – | > 10 µM | > 10 µM | > 10 µM | 395 nM

Reference: patent US9266883B2, “Ring-fused bicyclic pyridyl derivatives as FGFR4 inhibitors” (Novartis AG, priority 2013, dated 2016)
